Molecular target: Cathepsin S (Homo sapiens, UniProt P25774)
Assay: Inhibition Assay: 5 μL of a human cathepsin S enzyme (R&D1183-CY-010) was added to a 96-well plate so as to be 20 ng/well. Next, 10-fold dilution of the test compound (a 10 mM DMSO solution) was serially performed with a buffer solution for assay (a solution of 50 mM sodium methoxide, 250 mM sodium chloride and 5 mM dithiothreitol (DTT), adjusted to pH=4.5 with 1 N hydrochloric acid) six times such that the final concentration becomes 0.1 nM to 10 μM then, 20 μL of each of the solutions was added to the wells (the final DMSO concentration was 0.1%), and 25 μL of synthetic substrate VVR-AMC (3211-V manufactured by PEPTIDE […], INC.) was added thereto such that the final concentration becomes 40 μM, thereby starting a enzyme reaction. A fluorescence intensity (an excitation wavelength: 380 nm and a fluorescent wavelength: 460 nm) was measured at 37° C. for 10 minutes immediately after the start of the reaction using a fluorescence spectrophotometer (SPECTRA MAX GEMINI, manu

Cathepsin S, sequence (P25774 whole entry): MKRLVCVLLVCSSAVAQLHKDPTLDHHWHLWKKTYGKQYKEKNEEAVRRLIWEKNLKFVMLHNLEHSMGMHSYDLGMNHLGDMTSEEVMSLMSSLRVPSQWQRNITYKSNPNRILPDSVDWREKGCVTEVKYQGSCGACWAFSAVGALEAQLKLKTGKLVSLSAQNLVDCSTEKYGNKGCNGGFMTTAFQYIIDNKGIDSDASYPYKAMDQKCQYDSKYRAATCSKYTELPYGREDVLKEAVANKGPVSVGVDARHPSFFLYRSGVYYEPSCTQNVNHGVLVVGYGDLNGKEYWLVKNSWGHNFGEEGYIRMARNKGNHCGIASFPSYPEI

Which IC50 does the source give for `CCN1CC(COc2ccc(-c3nc(C#N)nc4c3ccn4C)cc2C(F)(F)F)C1` here?
Its IC50 is 3.1 nM.

How did the IC50 turn out when `CCn1ccc2c(-c3ccc(OCCC4CCNCC4)c(C(F)(F)F)c3)nc(C#N)nc21` was run?
The IC50 was 3 nM.

For `Cn1cnc2c(-c3ccc(OCCC4CCNCC4)c(C(F)(F)F)c3)nc(C#N)nc21`, which IC50 is on record?
Its IC50 is 1.7 nM.

How did the IC50 turn out when `Cn1cnc2c(-c3ccc(OCCC4CCN(CC(=O)N5CC[C@H](F)C5)CC4)c(C(F)(F)F)c3)nc(C#N)nc21` was run?
Its IC50 is 1.7 nM.

Which IC50 does the source give for `CCN1CCC(CCOc2ncc(-c3nc(C#N)nc4c3ncn4CC3CCOC3)cc2C(F)(F)F)CC1` (configuration not stated) here?
Its IC50 is 2 nM.

With `CCN1CCN(C(=O)COc2ccc(-c3nc(C#N)nc4c3ncn4C)cc2C(F)(F)F)CC1` as the compound, how does the IC50 read?
Its IC50 is 2.6 nM.

With `Cn1ccc2c(-c3ccc(SCCC4CCNCC4)c(C(F)(F)F)c3)nc(C#N)nc21` as the compound, how does the IC50 read?
The IC50 was 1.7 nM.

`N#Cc1nc(-c2cnc(OCCC3CCNCC3)c(C(F)(F)F)c2)c2ccn(CC(=O)N3CCOCC3)c2n1` was tested. Which IC50 did it give?
The IC50 was 3.1 nM.

With `CCN1CCC(CCOc2ncc(-c3nc(C#N)nc4c3ccn4CC3CCOCC3)cc2C(F)(F)F)CC1` as the compound, how does the IC50 read?
The IC50 was 3.2 nM.

For `Cn1ccc2c(-c3ccc(OCC4CCCNC4)c(C(F)(F)F)c3)nc(C#N)nc21` (configuration not stated), which IC50 is on record?
Its IC50 is 3.1 nM.

With `Cn1cnc2c(-c3ccc(OCCC4CCN(CC(=O)N5CCC(C#N)CC5)CC4)c(C(F)(F)F)c3)nc(C#N)nc21` as the compound, how does the IC50 read?
The IC50 was 2.1 nM.

For `Cn1cnc2c(-c3ccc(OCCC4CCN(CC#N)CC4)c(C(F)(F)F)c3)nc(C#N)nc21`, which IC50 is on record?
The IC50 was 2.7 nM.

How did the IC50 turn out when `Cn1ccc2c(-c3ccc(OCCC4CCN(C(C)(C)C)CC4)c(C(F)(F)F)c3)nc(C#N)nc21` was run?
Its IC50 is 2 nM.

For `CN1CCC[C@H]1C(=O)N1CCC(CCOc2ccc(-c3nc(C#N)nc4c3ccn4C3COC3)cc2C(F)(F)F)CC1`, which IC50 is on record?
Its IC50 is 3.3 nM.

`N#Cc1nc(-c2ccc(OCCC3CCNCC3)c(C(F)(F)F)c2)c2ccn(C3CCOC3)c2n1` (configuration not stated) was tested. Which IC50 did it give?
Its IC50 is 2.8 nM.

For `N#Cc1nc(-c2ccc(OCCC3CCNCC3)c(C(F)(F)F)c2)c2cc[nH]c2n1`, which IC50 is on record?
The IC50 was 2.2 nM.

Which IC50 does the source give for `Cn1cnc2c(-c3ccc(OCCC4CCN(CCO)CC4)c(C(F)(F)F)c3)nc(C#N)nc21` here?
Its IC50 is 0.76 nM.

Which IC50 does the source give for `CC(C)N1CCC[C@H]1C(=O)N1CCC(CCOc2ncc(-c3nc(C#N)nc4c3ncn4C)cc2C(F)(F)F)CC1` here?
Its IC50 is 2.1 nM.

How did the IC50 turn out when `CC(C)N1CCC(CCOc2ccc(-c3nc(C#N)nc4c3ccn4CC3CCOC3)cc2C#N)CC1` (configuration not stated) was run?
Its IC50 is 4.3 nM.

For `CN1C[C@@H](O)C[C@H]1C(=O)N1CCC(CCOc2ccc(-c3nc(C#N)nc4c3ncn4C)cc2C(F)(F)F)CC1`, which IC50 is on record?
The IC50 was 2.3 nM.

With `Cn1ccc2c(-c3ccc(OCC4CNC4)c(C(F)(F)F)c3)nc(C#N)nc21` as the compound, how does the IC50 read?
The IC50 was 4.5 nM.

With `Cn1cnc2c(-c3cc(F)c(OCCC4CCNCC4)c(C(F)(F)F)c3)nc(C#N)nc21` as the compound, how does the IC50 read?
Its IC50 is 1.9 nM.
